# Test results reported in patent US20160046618A1, “Cyclopropyl Fused Thiazin-2-Amine Compounds as Beta-Secretase Inhibitors and Methods of Use” (AMGEN INC., priority 2014, published 2016).
# Experiments:
# Recombinant Cat D = Recombinant Cat D (Homo sapiens (Human), UniProt P07339); assay: In vitro enzymatic Cathepsin D (Cat D) FRET assay; type: biochemical; conditions: read-out: IC50 IP (μM) CatD
# Method in brief: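 Cleavage of a 20 nM fluorophore/quencher peptide by CHO-expressed recombinant Cat D proceeded for one hour at pH 3.5 (0.05 M citrate, 5 mM CHAPS, 10% DMSO final). Tris addition neutralized the pH to end the reaction. Fluorescence was then measured (ex 500 nm/em 580 nm).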
# human recombinant BACE2 = human recombinant BACE2 (Homo sapiens (Human), UniProt Q9Y5Z0); assay: In vitro enzymatic BACE2 FRET assay; type: biochemical; conditions: read-out: IC50 IP (μM) BACE2 enzyme
# Method in brief: (§1)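 Tris addition raises the pH to neutral to stop the reaction before fluorescence is measured at 590 nm emission with 488 nm excitation.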
# human recombinant BACE1 = human recombinant BACE1 (Homo sapiens (Human), UniProt P56817); assay: In vitro enzymatic BACE1 FRET assay; type: biochemical; conditions: read-out: IC50 IP (μM) BACE1 enzyme
# Method in brief: as §1
# [1] = test system: Aβ40 in conditioned medium of cells stably expressing Amyloid Precursor Protein (APP); assay: In vitro BACE-1 cell-based assay (Aβ40 sandwich ELISA); conditions: read-out: IC50 IP (μM) BACE1 cell
# Method in brief: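 Read-out: time-resolved fluorescence (Streptavidin-Europium) of Aβ40 captured by pAb40 and detected with biotinylated 6E10 from supernatants of APP-stable cells. Cells were exposed to compound for 24 h, 10-point dose response, top dose 100 μM or 10 μM, 0.1% DMSO. IC50 fitted to percent of control.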
# Chain of human recombinant BACE1 (P56817 46-501): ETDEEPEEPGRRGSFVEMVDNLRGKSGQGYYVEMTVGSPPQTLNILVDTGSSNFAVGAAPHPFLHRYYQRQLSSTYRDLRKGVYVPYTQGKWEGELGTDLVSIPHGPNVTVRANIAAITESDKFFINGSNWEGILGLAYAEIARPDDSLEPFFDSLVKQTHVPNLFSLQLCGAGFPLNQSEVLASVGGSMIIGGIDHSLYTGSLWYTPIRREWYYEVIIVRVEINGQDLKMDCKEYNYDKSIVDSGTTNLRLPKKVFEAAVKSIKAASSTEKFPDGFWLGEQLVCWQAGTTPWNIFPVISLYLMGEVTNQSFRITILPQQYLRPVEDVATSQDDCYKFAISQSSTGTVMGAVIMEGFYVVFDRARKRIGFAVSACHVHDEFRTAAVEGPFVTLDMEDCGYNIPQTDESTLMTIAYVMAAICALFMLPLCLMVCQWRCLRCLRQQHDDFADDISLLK
# Chain of human recombinant BACE2 (Q9Y5Z0 63-518): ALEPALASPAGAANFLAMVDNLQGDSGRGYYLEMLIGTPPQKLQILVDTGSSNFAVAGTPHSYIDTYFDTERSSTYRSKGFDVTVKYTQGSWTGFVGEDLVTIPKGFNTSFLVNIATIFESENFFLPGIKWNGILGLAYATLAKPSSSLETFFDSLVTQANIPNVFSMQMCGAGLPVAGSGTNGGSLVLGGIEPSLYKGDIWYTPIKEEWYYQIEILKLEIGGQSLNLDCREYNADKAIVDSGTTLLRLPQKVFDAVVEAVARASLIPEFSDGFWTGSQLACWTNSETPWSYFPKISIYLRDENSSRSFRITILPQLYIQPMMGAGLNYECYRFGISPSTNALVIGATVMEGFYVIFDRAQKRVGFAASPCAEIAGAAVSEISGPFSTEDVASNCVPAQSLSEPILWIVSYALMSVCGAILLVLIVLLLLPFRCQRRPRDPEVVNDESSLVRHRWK
# Chain of Recombinant Cat D (P07339 65-412): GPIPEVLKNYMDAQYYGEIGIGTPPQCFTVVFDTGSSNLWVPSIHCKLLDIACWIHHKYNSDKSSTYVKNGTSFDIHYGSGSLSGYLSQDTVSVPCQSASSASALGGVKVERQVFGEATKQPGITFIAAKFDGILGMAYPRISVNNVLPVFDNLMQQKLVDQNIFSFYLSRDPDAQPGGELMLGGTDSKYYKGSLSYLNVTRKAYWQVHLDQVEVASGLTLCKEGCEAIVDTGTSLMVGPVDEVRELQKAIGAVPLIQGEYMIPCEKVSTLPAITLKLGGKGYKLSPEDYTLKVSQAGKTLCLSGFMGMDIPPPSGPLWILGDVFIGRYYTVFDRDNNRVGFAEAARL
IC50 (Recombinant Cat D) [µM],IC50 (human recombinant BACE2) [µM],IC50 (human recombinant BACE1) [µM],IC50 [1] [µM],Structure (SMILES)
1320,0.709,0.548,3.89,COC[C@]12C[C@H]1[C@@](C)(c1cc(NC(=O)c3ncc(O[C@H](C)c4ncco4)cc3C)cc(F)c1F)N=C(N)S2 [Example 688]
1200,0.246,0.00294,0.0489,"C[C@]1(c2cc(NC(=O)c3ncc(OCC(F)(F)F)cc3Cl)cc(F)c2F)N=C(N)S[C@@]2(CF)C[C@H]21 [Example 693, N-(3-((1S,5S,6S)-3-amino-1-(fluoromethyl)-5-methyl-2-thia-4-azabicyclo[4.1.0]hept-3-en-5-yl)-4,5-difluorophenyl)-3-chloro-5-(2,2,2-trifluoroethoxy)-2-pyridinecarboxamide]"
9.48,0.0509,0.000893,0.00672,"CC(C)[C@@H](C)NC(=O)[C@]12C[C@H]1[C@@](C)(c1cc(NC(=O)c3cnc(OCC(F)(F)F)cn3)ccc1F)N=C(N)S2 [Example 997, (1S,5S,6S)-3-amino-5-(2-fluoro-5-(5-(2,2,2-trifluoroethoxy)pyrazine-2-carboxamido)phenyl)-5-methyl-N—((R)-3-methylbutan-2-yl)-2-thia-4-azabicyclo[4.1.0]hept-3-ene-1-carboxamide]"
1300,0.0515,0.000842,0.00323,"Cc1cc(NC(=O)c2cnc(OCC(F)(F)F)cn2)cc([C@@]2(C)N=C(N)S[C@@]3(C(F)F)C[C@@H]23)c1F [Example 1073, N-(3-((1S,5S,6S)-3-amino-1-(difluoromethyl)-5-methyl-2-thia-4-azabicyclo[4.1.0]hept-3-en-5-yl)-4-fluoro-5-methylphenyl)-5-(2,2,2-trifluoroethoxy)pyrazine-2-carboxamide]"
341,< 0.00203,0.000927,0.019,"NC1=N[C@](CF)(c2cc(NC(=O)c3ccc(Cl)cn3)ccc2F)[C@@H]2C[C@]2(c2c[nH]nn2)S1 [Example 956, N-(3-((1S,5S,6S)-3-amino-5-(fluoromethyl)-1-(1H-1,2,3-triazol-4-yl)-2-thia-4-azabicyclo[4.1.0]hept-3-en-5-yl)-4-fluorophenyl)-5-chloro-2-pyridinecarboxamide]"
664,0.0097,0.000297,0.000265,"C[C@]1(c2cc(NC(=O)c3cnc(OCC(F)(F)F)cn3)ccc2F)N=C(N)S[C@@]2(C(=O)N3CC[C@@H](F)C3)C[C@H]21 [Example 991, N-(3-((1S,5S,6S)-3-amino-1-((R)-3-fluoropyrrolidine-1-carbonyl)-5-methyl-2-thia-4-azabicyclo[4.1.0]hept-3-en-5-yl)-4-fluorophenyl)-5-(2,2,2-trifluoroethoxy)pyrazine-2-carboxamide]"
121,0.00253,0.000863,0.000338,"CN(C)C(=O)[C@]12C[C@H]1[C@@](C)(c1cc(Nc3ncnc4cc(OCc5ncco5)cnc34)cc(F)c1F)N=C(N)S2 [Example 923, (1S,5S,6S)-3-amino-5-(2,3-difluoro-5-((7-(1,3-oxazol-2-ylmethoxy)pyrido[3,2-d]pyrimidin-4-yl)amino)phenyl)-N,N,5-trimethyl-2-thia-4-azabicyclo[4.1.0]hept-3-ene-1-carboxamide]"
> 400,0.18,0.0054,0.0035,"COC[C@]12C[C@H]1[C@@](C)(c1cc(NC(=O)c3cnc(OCC4(C)CC4)cn3)ccc1F)N=C(N)S2 [Example 1049, N-(3-((1S,5S,6S)-3-amino-1-(methoxymethyl)-5-methyl-2-thia-4-azabicyclo[4.1.0]hept-3-en-5-yl)-4-fluorophenyl)-5-((1-methylcyclopropyl)methoxy)-2-pyrazinecarboxamide]"
915,0.0497,0.00233,0.0603,"C#CCOc1cnc2c(Nc3cc(F)c(F)c([C@@]4(C)N=C(N)S[C@@]5(COC)C[C@H]54)c3)ncc(F)c2c1 [Example 951, N-(3-((1S,5S,6S)-3-amino-1-(methoxymethyl)-5-methyl-2-thia-4-azabicyclo[4.1.0]hept-3-en-5-yl)-4,5-difluorophenyl)-5-fluoro-3-(2-propyn-1-yloxy)-1,7-naphthyridin-8-amine]"
648,0.0273,0.000935,0.00151,"C#CCOc1cnc2c(Nc3ccc(F)c([C@@]4(CF)N=C(N)S[C@@]5(CC#N)C[C@H]54)c3)nccc2n1 [Example 720, ((1R,5S,6S)-3-amino-5-(fluoromethyl)-5-(2-fluoro-5-((2-(2-propyn-1-yloxy)pyrido[3,4-b]pyrazin-5-yl)amino)phenyl)-2-thia-4-azabicyclo[4.1.0]hept-3-en-1-yl)acetonitrile]"
> 400,0.345,0.033,0.035,"C=C[C@@H](C)Oc1cnc(C(=O)Nc2ccc(F)c([C@@]3(C)N=C(N)S[C@@]4(COC)C[C@H]43)c2)cn1 (mixture of isomers) [Example 1051, N-(3-((1S,5S,6S)-3-amino-1-(methoxymethyl)-5-methyl-2-thia-4-azabicyclo[4.1.0]hept-3-en-5-yl)-4-fluorophenyl)-5-(((1R)-1-methyl-2-propen-1-yl)oxy)-2-pyrazinecarboxamide, N-(3-((1S,5S,6S)-3-amino-1-(methoxymethyl)-5-methyl-2-thia-4-azabicyclo[4.1.0]hept-3-en-5-yl)-4-fluorophenyl)-5-(((1S)-1-methyl-2-propen-1-yl)oxy)-2-pyrazinecarboxamide]"
> 400,0.29,0.0053,0.0453,"C[C@]1(c2cc(NC(=O)c3ccc(OCC(F)(F)F)cn3)cc(F)c2F)N=C(N)S[C@@]2(CF)C[C@H]21 [Example 692, N-(3-((1S,5S,6S)-3-amino-1-(fluoromethyl)-5-methyl-2-thia-4-azabicyclo[4.1.0]hept-3-en-5-yl)-4,5-difluorophenyl)-5-(2,2,2-trifluoroethoxy)-2-pyridinecarboxamide]"
> 400,0.00422,0.000507,0.00624,"C#CCOc1cnc2c(Nc3ccc(F)c([C@@]4(CF)N=C(N)S[C@@]5(c6c[nH]nn6)C[C@@H]45)c3)nccc2n1 [Example 960, N-(3-((1S,5S,6S)-3-amino-5-(fluoromethyl)-1-(1H-1,2,3-triazol-4-yl)-2-thia-4-azabicyclo[4.1.0]hept-3-en-5-yl)-4-fluorophenyl)-2-(2-propyn-1-yloxy)pyrido[3,4-b]pyrazin-5-amine]"
844,0.00588,0.0454,0.0781,"NC1=N[C@](CF)(c2cc(Nc3nncc4cc(Cl)cnc34)ccc2F)[C@@H]2C[C@@H]2S1 [Example 754, (1S,5S,6S)-5-(5-((3-chloropyrido[2,3-d]pyridazin-8-yl)amino)-2-fluorophenyl)-5-(fluoromethyl)-2-thia-4-azabicyclo[4.1.0]hept-3-en-3-amine]"
1940,1.77,0.101,0.164,"COC[C@]12C[C@H]1[C@@](C)(c1cc(NC(=O)c3cnc(O[C@@H](C)C(F)(F)F)cn3)ccc1F)N=C(N)S2 (single isomer, unassigned) [Example 995]"
777,0.556,0.0389,0.344,"C#C[C@H](C)Oc1cnc(C(=O)Nc2cc(F)c(F)c([C@@]3(C)N=C(N)S[C@@]4(COC)C[C@H]43)c2)c(C)c1 [Example 650, N-(3-((1S,5S,6S)-3-amino-1-(methoxymethyl)-5-methyl-2-thia-4-azabicyclo[4.1.0]hept-3-en-5-yl)-4,5-difluorophenyl)-3-methyl-5-(((1S)-1-methyl-2-propyn-1-yl)oxy)-2-pyridinecarboxamide]"
397,0.00329,0.000422,0.00577,"C#CCOc1cnc2c(Nc3ccc(F)c([C@@]4(CF)N=C(N)S[C@@]5(c6cnco6)C[C@@H]45)c3)nccc2n1 [Example 781, N-(3-((1S,5S,6S)-3-amino-5-(fluoromethyl)-1-(1,3-oxazol-5-yl)-2-thia-4-azabicyclo[4.1.0]hept-3-en-5-yl)-4-fluorophenyl)-2-(2-propyn-1-yloxy)pyrido[3,4-b]pyrazin-5-amine]"
282,0.0786,0.00204,0.00146,"CC#CCOc1cnc2c(Nc3ccc(F)c([C@@]4(CF)N=C(N)S[C@@]5(/C=C/C(=O)N(C)C)C[C@H]54)c3)nccc2c1 [Example 771, (2E)-3-((1R,5S,6S)-3-amino-5-(5-((3-(2-butyn-1-yloxy)-1,7-naphthyridin-8-yl)amino)-2-fluorophenyl)-5-(fluoromethyl)-2-thia-4-azabicyclo[4.1.0]hept-3-en-1-yl)-N,N-dimethyl-2-propenamide]"
715,0.00382,0.00579,0.0144,"NC1=N[C@](CF)(c2cc(NC(=O)c3ccc(Cl)cn3)ccc2F)[C@@H]2C[C@]2(COCC(F)(F)F)S1 [Example 954, N-(3-((1S,5S,6S)-3-amino-5-(fluoromethyl)-1-((2,2,2-trifluoroethoxy)methyl)-2-thia-4-azabicyclo[4.1.0]hept-3-en-5-yl)-4-fluorophenyl)-5-chloro-2-pyridinecarboxamide]"
